IC50 data for 1 compound are collected here from US20030181498A1, “Bicyclic heteroaryl compounds as inhibitors of the interaction between the integrin alpha4beta1 receptor and vcam-1 and/or fibronectin” (AstraZeneca AB, priority 2000, published 2003).

The target of the assay is T1, integrin α4β1 expressed on the MOLT-4 cell membrane with fibronectin (Homo sapiens, UniProt P05556+P13612).
T1 construct: integrin α4β1 expressed on the MOLT-4 cell membrane; host or cells: MOLT-4 human T-lymphoblastic leukaemia cells
As to the kind of experiment: MOLT-4 cell/fibronectin adhesion assay. Conditions: MOLT-4 cells, fibronectin-coated plates, 2 h at 37° C.; read-out: inhibitor at (inhibition of MOLT-4 cell adhesion to fibronectin). The format is cell-based. An excerpt: MOLT4 cells—human T-lymphoblastic leukaemia cells European Collection of Anil Cell Cultures, Porton Down)
Fibronectin—purified from human plasma by gelatin-sepharose affinity chromatography according to the methods described in E. Nengvall, E. Ruoslahti, Int. J. Cancer, 1977, 20, pages 1-5 and J. Forsyth et al, Methods in Enzymology, 1992, 21 pages 311-316).
1.1.1 MOLT-4 Cell/Fibronectin Adhesion Assay.
The MOLT-4 cell/fibronectin adhesion assay was used to investigate the interaction of the integrin α4β1 expressed on the MOLT-4 cell membrane with fibronectin. Polystyrene 96 well plates were coated overnight at 4° C. with fibronectin, 100 μl of 10 μg/ml in PBS. Non-specific adhesion sites were blocked by adding 100 μl BSA, 20 mg/ml. After incubating for 1 h at room temperature, the solutions were aspirated. […] Adherent cells were quantified by a colorimetric acid phosphatase assay. […] After incubation for 1 h at 37° C., 50 μl sodium hydroxide (1M) was added to each well and the absorbance 405 nm was measured on a microplate spectrophotometer. Compounds which inhibited adhesion gave a lower absorbance reading. […] Percentage inhibition was calculated with respect to total (no inhibitor) and non-specific (no fibronectin) standards on each plate. […]

T1 sequence (P13612 34-1032): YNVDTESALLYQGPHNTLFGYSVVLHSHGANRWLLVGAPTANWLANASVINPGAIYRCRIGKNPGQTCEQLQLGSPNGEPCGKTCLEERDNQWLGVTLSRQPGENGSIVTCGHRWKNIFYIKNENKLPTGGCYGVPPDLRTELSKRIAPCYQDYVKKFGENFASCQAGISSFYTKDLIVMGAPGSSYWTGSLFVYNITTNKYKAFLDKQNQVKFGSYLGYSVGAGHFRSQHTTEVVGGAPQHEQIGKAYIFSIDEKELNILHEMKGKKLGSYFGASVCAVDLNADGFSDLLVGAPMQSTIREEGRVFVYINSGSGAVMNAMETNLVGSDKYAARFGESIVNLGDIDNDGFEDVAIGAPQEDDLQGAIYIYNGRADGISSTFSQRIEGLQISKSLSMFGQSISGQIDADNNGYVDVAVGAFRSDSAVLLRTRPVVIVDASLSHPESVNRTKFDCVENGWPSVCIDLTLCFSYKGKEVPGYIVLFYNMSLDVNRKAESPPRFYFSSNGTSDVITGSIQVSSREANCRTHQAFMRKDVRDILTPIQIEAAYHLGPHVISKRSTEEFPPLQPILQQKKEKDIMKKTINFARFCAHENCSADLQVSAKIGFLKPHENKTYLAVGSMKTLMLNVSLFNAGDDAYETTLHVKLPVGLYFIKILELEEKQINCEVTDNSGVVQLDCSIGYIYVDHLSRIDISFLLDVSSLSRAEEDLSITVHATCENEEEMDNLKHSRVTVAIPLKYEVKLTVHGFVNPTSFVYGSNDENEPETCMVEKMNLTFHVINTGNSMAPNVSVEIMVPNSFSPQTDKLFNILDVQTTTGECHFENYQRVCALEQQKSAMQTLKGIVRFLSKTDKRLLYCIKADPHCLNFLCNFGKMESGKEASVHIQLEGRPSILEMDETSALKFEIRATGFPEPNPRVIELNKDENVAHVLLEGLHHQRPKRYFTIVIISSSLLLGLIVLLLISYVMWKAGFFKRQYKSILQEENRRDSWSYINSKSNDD
T1 sequence (P05556 21-798): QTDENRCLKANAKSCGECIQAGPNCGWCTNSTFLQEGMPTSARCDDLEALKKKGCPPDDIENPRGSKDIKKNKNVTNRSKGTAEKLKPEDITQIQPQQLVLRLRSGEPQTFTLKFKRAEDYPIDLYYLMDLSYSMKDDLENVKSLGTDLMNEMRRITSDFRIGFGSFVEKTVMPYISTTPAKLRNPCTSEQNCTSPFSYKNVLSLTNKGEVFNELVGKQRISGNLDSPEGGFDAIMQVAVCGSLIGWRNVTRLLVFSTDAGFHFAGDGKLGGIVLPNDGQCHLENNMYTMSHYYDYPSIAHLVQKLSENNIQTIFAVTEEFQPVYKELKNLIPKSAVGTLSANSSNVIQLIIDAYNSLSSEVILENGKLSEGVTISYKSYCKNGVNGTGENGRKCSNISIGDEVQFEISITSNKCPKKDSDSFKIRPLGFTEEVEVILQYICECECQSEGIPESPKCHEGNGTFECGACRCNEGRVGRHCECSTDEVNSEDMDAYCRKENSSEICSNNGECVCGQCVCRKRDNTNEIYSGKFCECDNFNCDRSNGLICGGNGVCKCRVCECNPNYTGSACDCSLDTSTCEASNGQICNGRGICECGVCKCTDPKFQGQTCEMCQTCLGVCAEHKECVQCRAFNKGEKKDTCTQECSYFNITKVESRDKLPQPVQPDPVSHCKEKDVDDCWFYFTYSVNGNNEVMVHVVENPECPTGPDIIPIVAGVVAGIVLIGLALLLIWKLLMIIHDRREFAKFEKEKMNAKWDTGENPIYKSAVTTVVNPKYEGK

With `COc1cc(CC(=O)Nc2ccc(=O)n(CCCCC(=O)O)c2)cc2oc(Nc3ccccc3)nc12` [Compound CV], the IC50 stood at 1.1 µM.
